The values below come from US12102685B2, “Immodulator peptides covalently modified with small molecules” (priority 2020, dated 2024).

Experiment [1] is described as follows: Strength of binding to iron, plate assay (x2E b). The settings on record: 1 ug/well peptide complexed to Alexa-488-streptavidin; ferric iron. The method, then: Immodulator peptides were extended C-terminally by three amino acids, to include a valine residue that is highly conserved in the “thyroglobulin type 1 motif”. The reasoning behind this attempt is that a longer conserved sequence might lead to a tighter fold overall, which might in turn result in increased metal-binding avidity. • (b) Strength of binding to iron was evaluated by plate assay.
(§1) Experiments were conducted by the procedure described above. Ferric iron-charged NTA-coated 96-well plates were used as described. 1 ug/well immodulator peptide complexed to Alexa-488-labeled streptavidin in PBS buffer was added (60 min at room temperature). The plate was washed and counted in a standard fluorometer (excitation/emission: 485/525 nm). The results (fluorescence) show improved iron-binding by the three peptides extended C-terminally by the AVD, (dA)VD, and FVS tripeptides. **p<0.01 vs IM3 control IM3: 200±29; IM4: 45±37**; IM5: 130±77; IM3AVD: 434±29**; IM3dAVD: 418±28**; IM3FVS: 371±33** • (c) Competition assay. The same procedure was used as the preceding experiment, except that 375 ng/well labeled IM3 peptide was used, plus 10× of the indicated unlabeled peptide. ‘No competing peptide’ control value was set to 100. *p<0.05 vs “no peptide” control Competing Peptide/Fluorescence • None: 100±38; IM4: 125±26; IM3: 63±27*; IM5: 40±14*; IM3AVD: 10±28* • (d) Competition assay. The same procedure was used as the preceding experiment, except that labeled IM3AVD peptide was used. **p<0.01 vs “no competing peptide” control • None: 100±9; IM4: 144±44; IM3: 35±16**; IM5: 30±19**; IM3AVD: 9±19** • (e) The same procedure was used as the preceding experiment, except that each peptide was labeled with Alexa-488-labeled streptavidin in PBS buffer and used separately. Binding to IM3 was set to =100. *p<0.05, **p<0.01 vs IM3 control. (Labeled Peptide/Fluorescence) IM1: 1.8±0.4**; IM2: 3.0±1.8**; IM3: 100.0±16.8; IM4: 7.2±1.7*; IM5: 86.7±6.4; IM6: 85.9±14.9; IM3AVD:137.7±11.8*; IM3dAVD:147.4±22.9*; IM3FVS: 101.5±10.5.

A short description of experiment [2]: Iron binding of separately labeled peptides (x2E e). Particulars: each peptide labeled separately; IM3 = 100; ferric iron. How it is done: as §1
A further experiment has as its system NF-kappa-B (NFkB). Kind of experiment: THP1-Dual monocyte reporter, NF-kappa-B readout (x4A). It is filed as cell-based. Particulars: no peptide. The method, then:
(§2) Immune modulation functions of immodulator peptides were measured using the monocyte reporter cell line THP1-Dual (Invivogen, San Diego, CA), which provides convenient readouts for STING and NF-kappa-B pathways. Optionally, succinic acid, cytokine and chemokine production were also measured. THP1-Dual cell line was obtained from Invivogen. Cells were grown in a T-75 flask in RPMI Medium containing 20% fetal bovine serum, blasticidin ([…]), zeocin ([…]) and penicillin-streptomycin at 37° C. in a humidified, 5% CO2 incubator. Cells ([…], 8,000 cells/well) were plated in a 96-well plate and incubated overnight at 37 °C in a humidified, 5% CO2 incubator. Next day, […] of compounds were added (quadruplicate wells). After 24 hour incubation with the compound, supernatants were harvested and stored at 4° C. prior to assay.
(§3) Each cell supernatant was assayed in quadruplicate. 20 uL of supernatant was used to measure NF-kappa-B (NFkB) and
(§4) STING activity using reagents QuantiBlu and QuantiLuc respectively, according to the manufacturer's recommendations (Invivogen, San Diego, CA). Succinic acid was measured by using a kit from Megazyme Inc (Cambridge, MA). Control value of activity was set to 100 in each assay. […] PAM3C=25 ng/ml PAM3CSK4 (TLR1/2 inducer); Poly(I:C)=10 ug/ml (TLR3 inducer); PAM2C=25 ng/ml PAM2CSK4 (TLR2/6 inducer); KIN14=4 uM KIN-1400 (RIG-I inducer); cytB=1 uM cytosporone B (Nur77 inducer); C-178=1 uM STING inhibitor; NFkBi=50 ug/ml NFkB inhibitor peptide; SB2021=10 uM p38MAPK inhibitor; *p<0.05, **p<0.01 vs IM3 control; #p<0.01 vs “no inducer” control; SUCC=succinic acid; nd=not done; Peptide was added to cells at 400 nM.
(§5) Peptides were added to cells at 400 nM. […]

Another experiment deals with STING. The experiment in a line: THP1-Dual monocyte reporter, STING readout (x4A). The class given is cell-based. Particulars: no peptide. How it is done:
as §2, §3, §4, §5

A further experiment has as its system THP1-Dual monocytes. The experiment in a line: Succinic acid in THP1-Dual supernatant (x4A). The class given is cell-based. The settings on record: no peptide. How it is done: as §2, §4, §5
The subject of a further experiment is A375 cells. Kind of experiment: A375 cell viability, CellTiterGlo (x10A). The settings on record: 72 hours. The class given is cell-based. How it is done: (§6) Immune modulation functions of immodulator peptides have great potential untility in the field of cancer. A375 cell line was obtained from American Type Culture Collection (ATCC). They were grown in a T-75 flask in DMEM Medium containing 10% fetal bovine serum and penicillin-streptomycin at 37° C. in a humidified, 5% CO2 incubator. Cells ([…], 2,000 cells/well) were plated in a 96-well plate and incubated overnight at 37° C. in a humidified, 5% CO2 incubator. Next day, […] of compounds were added (quadruplicate wells). After 72 hour incubation with the compound, cell viability was measured in a luminometer after the addition of […] CellTiterGlo reagent (Promega Inc, Madison, WI) as recommended by the manufacturer.
Experiment x10A. Anti-cancer activity of immodulator peptides on A375 cells. A 96-well plate was seeded with 2,000 A375 cells per well in DMEM medium containing 10% FBS and PenStrep. After 24 hrs at 37 deg C., compounds and peptides were added (each treatment done in quadruplicate). After a further 72 hours incubation, 100 uL/well of CTG assay reagent purchased from Promega Inc. (Madison, WI) was added. Plate was read after 10 minutes, as recommended by the manufacturer. Peptides were added at 2 uM. The results of this experiment are shown below, expressed as percent survival ofA375 cells.
On the technique in general: ATP-based viability assays read luminescence as a measure of living cells.

The nature of experiment [3]: Competition binding assay to metal-charged NTA-coated plates (x2B b). The settings on record: PBS on calcium = 100. The method, then: NTA-metal-affinity fluorescence assay was performed using 96-well NTA-metal-coated plates readily available from commercial sources such as Qiagen (Germantown, MD). NTA was charged with ferrous or ferric iron, zinc, copper, calcium, vanadium, ruthenium, cobalt, titanium, manganese or other metals. 400 ng of FITC-labeled immodulator peptide (or biotinylated immodulator peptide complexed to Alexa-488-labeled streptavidin) in PBS buffer was added per plate. After incubation at room temperature for 60 minutes, excess peptide was washed off and peptide was detected by measuring fluorescence (excitation 490 nm, emmission 525 nm) in a fluorometer. • (a) Using FITC-labeled IM3 peptide (1 ug/well) in the fluorescent binding assay: • EDTA-treated control: 2,251±1,186 • Ferrous iron: 170,441±11,264 (p<0.001)* • Copper: 13,644±5566 (p<0.05)* • Calcium: 48,822±11,990 (p<0.01)* • *p values are relative to EDTA-treated control • (b) Competition binding assay to ferrous iron, calcium, copper and zinc-charged NTA-coated plates using FITC-labeled IM3 peptide (0.5 uM) and 8× (4 uM) unlabelled competitor peptides IM3N1, IM3N2 (*all comparisons to PBS control are p<0.01); # fluorescent value of binding to […] was set at 100.

In experiment [4] the test system is COL1 in HFF-1 dermal fibroblasts. The experiment in a line: Collagen-1 ELISA in HFF-1 dermal fibroblasts (x11A). The class given is cell-based. The settings on record: peptide 2 uM, 72 hour; control (buffer) = 100. How it is done: as §6, with “have” for “have great”, “cosmetics. HFF-1” for “cancer. A375”, “Cells” for “They”, “compound, supernatants were collected for Collagen-1 ELISA assay and” for “compound,”
Collagen stimulating activity of immodulator peptides in HFF-1 dermal fibroblasts. Peptides were added to cells at 2 uM. COL1 immunoreactivity was measured in the supernatants of cultured cells by ELISA using a rabbit monoclonal anti-COL1 primary antibody (Abcam, Cambridge, MA). Control (buffer) value of immunoreactivity was set to 100.
Background: An ELISA detects its analyte on a solid surface through an enzyme-linked reagent.

The mark [5] stands for this setting: 25 ng/ml PAM3CSK4 alone, control = 100.
Setting [6] is: 25 ng/ml PAM2CSK4 alone, IM3 + PAM2C = 100.
The mark [7] stands for this setting: KIN1400 alone, IM3 + KIN1400 = 100.

Marks after values point to notes of the source that are not given here. Square brackets hold non-standard residues; d marks the D form. Ends that are not written are not given here. Peptide text beside a SMILES is read from it. * marks the point of attachment. RG108 = O=C1c2ccccc2C(=O)N1[C@@H](Cc1c[nH]c2ccccc12)C(=O)*

Turning to `CC(C)[C@H](NC(=O)[C@H](Cc1ccccc1)NC(=O)[C@H](Cc1c[nH]c2ccccc12)NC(=O)[C@H](CS)NC(=O)[C@H](Cc1ccccc1)NC(=O)CNC(=O)[C@H](CCCNC(=N)N)NC(=O)[C@H](CCCCN)NC(=O)[C@H](CCCNC(=N)N)NC(=O)CNC(=O)[C@H](CCCCN)NC(=O)[C@H](CO)NC(=O)[C@@H]1CCCN1C(=O)[C@H](CCCNC(=N)N)NC(=O)[C@H](CS)NC(=O)[C@H](CCC(N)=O)NC(=O)[C@H](CCCCN)NC(=O)[C@H](CCCCN)NC(=O)[C@H](CCCCN)NC(=O)[C@H](Cc1ccc(O)cc1)NC(=O)[C@H](Cc1ccccc1)NC(=O)CNC(=O)[C@H](CCCCN)NC(=O)[C@@H](N)CCCCN)C(=O)N[C@@H](CO)C(=O)O` [IM3FVS] (H-KKGFYKKKQCRPSKGRKRGFCWFVS-OH; N-terminus and C-terminus assumed), the “fluorescence (iron binding)” value in experiment [1] is recorded as 371±33. In experiment [2], the “fluorescence of labeled peptide” value is 101.5±10.5.

Consider PAM3CSK4 [reference compound], for which the NFkB in the experiment with NF-kappa-B (NFkB) (setting [5]) is given as 326 #. Also, in the experiment on STING (setting [5]), the STING is given as 342 #.

As to PAM2CSK4 [reference compound], the NFkB with NF-kappa-B (NFkB) (setting [6]) is given as 118.7**. Besides, the SUCC in the experiment with THP1-Dual monocytes (setting [6]) is 121.5*. For the same molecule, the STING in the experiment with STING (setting [6]) is 144.5**.

For “(rg108)-KKGFYKKKQCRPSKGRKRGFCW (RG108-KKGFYKKKQCRPSKGRKRGFCW; cysteine pairing not given here) [IM3rg8, IM3 N-terminally conjugated with RG108]”, the “percent survival of A375 cells” value in the experiment with A375 cells (peptide 2 uM + Kin1400 4 uM (RIG-I agonist)) is 105.8%; in the experiment with A375 cells (peptide 2 uM, Buffer), 89.9** percent.

For the molecule “TGPSESYLQLEELVKQVVSKGFYKKKQCRPSKGRKRGFCW [IM3N2]”, the “FITC-IM3 fluorescence with competitor” value is reported as 12.9 ± 1.2* in experiment [3] (Calcium, 0.5 uM FITC-IM3, 8x (4 uM) unlabelled competitor); 5.1 ± 1.0* in experiment [3] (Copper, 8x (4 uM) unlabelled competitor); 25.2 ± 9.5* in experiment [3] (Ferrous iron, 8x (4 uM) unlabelled competitor); 13.4 ± 1.6* in experiment [3] (Zinc, 8x (4 uM) unlabelled competitor).

For the molecule FNSYELGSLKKGFYKKKQCRPSKGRKRGFCW [IM3K8], the “COL1 immunoreactivity in supernatant” value in experiment [4] is reported as 98.

For the molecule “AFNSYELGSKKGFYKKKQCRPSKGRKRGFCW [IM3K9.1]”, in experiment [4], the “COL1 immunoreactivity in supernatant” value is reported as 156**.

For the molecule “KKGFYKKKQCRPSKGRKRGFCW(dA)VD (KKGFYKKKQCRPSKGRKRGFCW[dA]VD; cysteine pairing not given here) [IM3dAVD, IM3 extended C-terminally by (dA)VD]”, the “fluorescence (iron binding)” value in experiment [1] is reported as 418±28. For the same molecule, the “fluorescence of labeled peptide” value in experiment [2] was 147.4±22.9.

Regarding “AFNSYELGSKGFYKKKQCRPSKGRKRGFCWAVDKY [IM3K9c]”, in experiment [4], the “COL1 immunoreactivity in supernatant” value was 158**.

On to AFNSYELGSKGFYKKKQCRPSKGRKRGFCW [IM3K9], for which the “COL1 immunoreactivity in supernatant” value in experiment [4] is 155**.

As for `Oc1c(C(Nc2nc3ccccc3s2)c2ccc(OC(F)F)cc2)ccc2cccnc12` (centres unmarked) [KIN1400, KIN-1400, reference compound], the “percent survival of A375 cells” value in the experiment on A375 cells (Kin1400 4 uM alone, no peptide) is 100.7%. Further, in the experiment on NF-kappa-B (NFkB) (KIN1400 (RIG-I agonist) alone, IM3 + KIN1400 = 100), the NFkB is given as 90.1. The SUCC in the experiment on THP1-Dual monocytes (setting [7]) was determined as 100.1. Moreover, the STING with STING (setting [7]) was 84.3**.
